Assay [1] deals with CDK9/Cyclin T1 (Homo sapiens (Human), UniProt P50750). In words: CDK9 enzyme assay (LANCE ULight TR-FRET kinase assay). The class given is biochemical. Conditions: 1000 μM ATP, 100 nM ULight MBP, kinase reaction 1 hour. The gist of the method:
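TR-FRET readout (ex 320 nm; em 615/665 nm) after 1 h detection with 0.5 nM europium anti-phospho-MBP antibody in 20 mM EDTA stop buffer. Preceding 1 h kinase step: CDK9/Cyclin T1, ULight-MBP substrate at 100 nM, ATP at 1000 μM, compound pre-diluted in DMSO then buffer.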
Background: In TR-FRET formats the signal depends on donor and acceptor labels being close together.

The test system of assay [2] is H929 cells. In words: Cell viability assay (Cell TiterGlo). The class given is cell-based. Particulars: Cell TiterGlo luminescence. The procedure:
The cell viability assay was performed using H929 cells. Cells were seeded in 96-well plates at 10,000 cells/well and, after overnight incubation, treated with compounds in a dose response of 3-fold dilutions from 10 μM to 0.005 μM ([…], 0.1% final DMSO concentration). After 24 hours at 37° C., cell viability was measured using Cell TiterGlo reagent (Promega) with a luminescence reader.
A general note: In ATP-based viability assays light output follows the ATP content of the culture.

[3] abbreviates: Homo sapiens, NCI-H929, 24 hours at 37° C.

A word on the IC50: it is the concentration that inhibits the measured activity by half. A high value points to a need for much substance.

Each structure is given as a SMILES string.

Chain of CDK9/Cyclin T1 (P50750 whole entry): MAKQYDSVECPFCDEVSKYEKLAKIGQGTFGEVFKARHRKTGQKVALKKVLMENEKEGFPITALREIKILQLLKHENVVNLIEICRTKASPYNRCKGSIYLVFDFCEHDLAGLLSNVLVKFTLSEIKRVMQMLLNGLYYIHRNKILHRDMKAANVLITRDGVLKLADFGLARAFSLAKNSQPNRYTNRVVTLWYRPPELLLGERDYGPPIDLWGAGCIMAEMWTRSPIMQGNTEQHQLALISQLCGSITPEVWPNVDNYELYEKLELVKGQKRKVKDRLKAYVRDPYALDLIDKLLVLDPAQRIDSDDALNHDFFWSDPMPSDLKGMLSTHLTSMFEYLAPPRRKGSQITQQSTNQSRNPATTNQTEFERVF
Chain of CDK9/Cyclin T1 (O60563 whole entry partner): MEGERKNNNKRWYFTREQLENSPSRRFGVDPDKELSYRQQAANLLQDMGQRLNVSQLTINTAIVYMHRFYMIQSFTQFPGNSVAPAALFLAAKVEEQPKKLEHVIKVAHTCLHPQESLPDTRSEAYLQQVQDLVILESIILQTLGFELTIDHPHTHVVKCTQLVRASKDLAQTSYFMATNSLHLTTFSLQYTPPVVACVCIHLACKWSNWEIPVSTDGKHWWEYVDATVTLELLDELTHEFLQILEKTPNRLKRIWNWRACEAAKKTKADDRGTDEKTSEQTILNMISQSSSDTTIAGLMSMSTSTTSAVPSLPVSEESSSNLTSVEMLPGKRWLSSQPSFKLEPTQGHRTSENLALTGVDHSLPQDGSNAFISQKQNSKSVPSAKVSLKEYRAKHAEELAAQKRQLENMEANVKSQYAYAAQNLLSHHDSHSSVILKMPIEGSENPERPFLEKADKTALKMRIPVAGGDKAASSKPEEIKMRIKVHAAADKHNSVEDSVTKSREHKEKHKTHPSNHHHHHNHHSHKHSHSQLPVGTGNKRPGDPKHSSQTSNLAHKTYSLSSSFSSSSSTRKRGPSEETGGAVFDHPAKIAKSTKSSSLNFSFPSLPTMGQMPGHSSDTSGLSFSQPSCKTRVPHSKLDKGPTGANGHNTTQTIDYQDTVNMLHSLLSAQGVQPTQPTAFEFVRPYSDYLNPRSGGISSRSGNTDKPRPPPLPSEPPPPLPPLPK

With `CN1Cc2c(C3=CCN(C4CCC(C(C)(C)C(=O)O)CC4)CC3)[nH]c3nccc(c23)-c2cc(F)ccc21` (stereo not drawn) [Example 185, 2-{4-[4-(10-fluoro-7-methyl-6,7-dihydro-4H-3,4,7-triazadibenzo[cd,f]azulen-5-yl)-3,6-dihydropyridin-1(2H)-yl]cyclohexyl}-2-methylpropanoic acid], the figures for the IC50 in assay [1] and in assay [2] (setting [3]) were 130 nM and 160 nM, respectively.

In the case of `CC[C@H]1c2c(C3=CCN([C@H]4C[C@@H](C(=O)OC)C4)CC3)[nH]c3nccc(c23)-c2cc(F)ccc2N1C` [Example 186, methyl cis-3-{4-[(6S)-6-ethyl-10-fluoro-7-methyl-6,7-dihydro-4H-3,4,7-triazadibenzo[cd,f]azulen-5-yl]-3,6-dihydropyridin-1(2H)-yl}cyclobutanecarboxylate], the IC50 in assay [1] stood at 64 nM; in assay [2] (setting [3]), 13 nM.

As for `CC[C@H]1c2c(C3=CCN([C@H]4C[C@@H](C(=O)O)C4)CC3)[nH]c3nccc(c23)-c2cc(F)ccc2N1C` [Example 187, cis-3-{4-[(6S)-6-ethyl-10-fluoro-7-methyl-6,7-dihydro-4H-3,4,7-triazadibenzo[cd,f]azulen-5-yl]-3,6-dihydropyridin-1(2H)-yl}cyclobutanecarboxylic acid], the IC50 in assay [1] was 110 nM; in assay [2] (setting [3]), 15 nM.

Take `CN1CCc2c(C3=CCN([C@H]4C[C@@H](C(=O)O)C4)CC3)[nH]c3nccc(c23)-c2cc(F)ccc21` [Example 188, cis-3-[4-(8-fluoro-5-methyl-1,3,4,5-tetrahydro-1,5,12-triazabenzo[4,5]cycloocta[1,2,3-cd]inden-2-yl)-3,6-dihydropyridin-1(2H)-yl]cyclobutanecarboxylic acid]: the half-inhibitory concentration (IC50) in assay [1] was 150 nM; in assay [2] (24 hours at 37° C.), 290 nM.

For `CC[C@H]1c2c(C3=CCN([C@H]4C[C@H](C(=O)O)C4)CC3)[nH]c3nccc(c23)-c2cc(F)ccc2N1C` [Example 189, trans-3-{4-[(6S)-6-ethyl-10-fluoro-7-methyl-6,7-dihydro-4H-3,4,7-triazadibenzo[cd,f]azulen-5-yl]-3,6-dihydropyridin-1(2H)-yl}cyclobutanecarboxylic acid], the IC50 in assay [1] turned out to be 110 nM; in assay [2] (setting [3]), 6 nM.

For the compound `CN1CCc2c(C3=CCN([C@H]4C[C@H](C(=O)O)C4)CC3)[nH]c3nccc(c23)-c2cc(F)ccc21` [Example 190, trans-3-[4-(8-fluoro-5-methyl-1,3,4,5-tetrahydro-1,5,12-triazabenzo[4,5]cycloocta[1,2,3-cd]inden-2-yl)-3,6-dihydropyridin-1(2H)-yl]cyclobutanecarboxylic acid], the half-maximal inhibitory concentration (IC50) in assay [1] was determined as 160 nM; in assay [2] (24 hours at 37° C.), 190 nM.

With `CN1Cc2c(C3=CCN(C4CCC(C(C#N)C(=O)O)CC4)CC3)[nH]c3nccc(c23)-c2cc(F)ccc21` (stereo not drawn) [Example 191, cyano{4-[4-(10-fluoro-7-methyl-6,7-dihydro-4H-3,4,7-triazadibenzo[cd,f]azulen-5-yl)-3,6-dihydropyridin-1(2H)-yl]cyclohexyl}acetic acid], the IC50 is 88 nM in assay [1] and 440 nM in assay [2] (setting [3]).

As for `CN1Cc2c(C3=CCN(C4CC(CC(=O)O)C4)CC3)[nH]c3ncc(F)c(c23)-c2cc(F)ccc21` (stereo not drawn) [Example 192, {3-[4-(1,10-difluoro-7-methyl-6,7-dihydro-4H-3,4,7-triazadibenzo[cd,f]azulen-5-yl)-3,6-dihydropyridin-1(2H)-yl]cyclobutyl}acetic acid], the IC50 in assay [1] turned out to be 79 nM; in assay [2] (setting [3]), 27 nM.

With `CN1Cc2c(C3=CCN(C4CC(C(=O)O)C4)CC3)[nH]c3ncc(F)c(c23)-c2cc(F)ccc21` (stereo not drawn) [Example 193, 3-[4-(1,10-difluoro-7-methyl-6,7-dihydro-4H-3,4,7-triazadibenzo[cd,f]azulen-5-yl)-3,6-dihydropyridin-1(2H)-yl]cyclobutanecarboxylic acid], the IC50 in assay [1] came out at 76 nM; in assay [2] (setting [3]) it was 11 nM.

For the origin of these results see US9328112B2, “Tetracyclic CDK9 kinase inhibitors” (AbbVie Inc., priority 2014, dated 2016).
